Values of other authors, collected in patent US10449179B2, “Stable veterinary anthelmintic formulations” (DONAGHYS LIMITED, priority 2014, dated 2019).

Details: LD50 literature averages for three animal species, human equivalent, safety factor 10

## C[S+](C)[O-] [DMSO, dimethylsulfoxide]
  safety relative to N-methylpyrrolidone (acute oral LD50): approximately 5 times
